Source: US5811456A, “Monoamine oxidase B inhibitors, processes for their preparation and use thereof” (priority 1994, dated 1998)
Where two headings read alike, the source gives them in different places.

What was measured:
[1] = tested on: MAO A; conditions: background; cited from earlier work
[2] = background; cited from earlier work
[3] = Cytotoxicity test on the cells in suspension (Trypan blue); type: cell-based; conditions: human, daudi cells; for CC50 at 24 h: read-out: LD50 (concentration for which 50% of the cells are killed); for MNTC at 24 h: read-out: MC100 (maximum concentration for which all the cells are alive)
[4] = molecular target: T1, rat brain MAO B (Rattus norvegicus, UniProt P19643); assay: Inhibitory activity toward rat brain MAO B in vitro (14C-beta-phenylethylamine substrate); type: biochemical
T1 construct: makes it possible to obtain a pellet enriched in mitochondria; from tissue; host or cells: Wistar rat brain without cerebellum, mitochondria-enriched pellet
T1 sequence (P19643 1-520): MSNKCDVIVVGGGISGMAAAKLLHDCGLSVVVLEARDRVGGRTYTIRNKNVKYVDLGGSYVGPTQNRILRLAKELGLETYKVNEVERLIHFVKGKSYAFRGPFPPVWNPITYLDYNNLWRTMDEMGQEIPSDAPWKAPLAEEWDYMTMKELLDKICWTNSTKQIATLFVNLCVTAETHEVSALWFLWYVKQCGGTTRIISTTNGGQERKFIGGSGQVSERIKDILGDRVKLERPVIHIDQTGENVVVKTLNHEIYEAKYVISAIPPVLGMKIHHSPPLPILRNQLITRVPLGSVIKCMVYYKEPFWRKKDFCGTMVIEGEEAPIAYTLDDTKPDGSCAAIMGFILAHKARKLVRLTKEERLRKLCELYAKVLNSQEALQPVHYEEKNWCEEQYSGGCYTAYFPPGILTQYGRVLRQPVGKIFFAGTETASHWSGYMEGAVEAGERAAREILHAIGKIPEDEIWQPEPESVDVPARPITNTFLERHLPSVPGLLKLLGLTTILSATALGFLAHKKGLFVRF

[5] = molecular target: T2, monoamine oxidase B (Rattus norvegicus, UniProt P19643); assay: Reversibility of the inhibitory activity toward MAO B (residual activity before and after washing); type: biochemical; conditions: mean of 4 assays
T2 construct: from tissue; host or cells: rat brain mitochondria (inferred from section 21.1; not restated in section 21.2)
T2 sequence (P19643 1-520): T1 sequence (P19643 1-520)

[6] = MTT cytotoxicity test on adherent cells; type: cell-based; conditions: human, hela ohio cells; for CC50 at 24 h: read-out: LD50 (concentration for which 50% of the cells are killed); for MNTC at 24 h: read-out: MC100 (maximum concentration for which all the cells are alive)
[7] = molecular target: T3, rat brain MAO A (Rattus norvegicus, UniProt P21396); assay: Inhibitory activity toward rat brain MAO A in vitro (14C-serotonin substrate); type: biochemical
T3 construct: makes it possible to obtain a pellet enriched in mitochondria; from tissue; host or cells: Wistar rat brain without cerebellum, mitochondria-enriched pellet
T3 sequence (P21396 1-526): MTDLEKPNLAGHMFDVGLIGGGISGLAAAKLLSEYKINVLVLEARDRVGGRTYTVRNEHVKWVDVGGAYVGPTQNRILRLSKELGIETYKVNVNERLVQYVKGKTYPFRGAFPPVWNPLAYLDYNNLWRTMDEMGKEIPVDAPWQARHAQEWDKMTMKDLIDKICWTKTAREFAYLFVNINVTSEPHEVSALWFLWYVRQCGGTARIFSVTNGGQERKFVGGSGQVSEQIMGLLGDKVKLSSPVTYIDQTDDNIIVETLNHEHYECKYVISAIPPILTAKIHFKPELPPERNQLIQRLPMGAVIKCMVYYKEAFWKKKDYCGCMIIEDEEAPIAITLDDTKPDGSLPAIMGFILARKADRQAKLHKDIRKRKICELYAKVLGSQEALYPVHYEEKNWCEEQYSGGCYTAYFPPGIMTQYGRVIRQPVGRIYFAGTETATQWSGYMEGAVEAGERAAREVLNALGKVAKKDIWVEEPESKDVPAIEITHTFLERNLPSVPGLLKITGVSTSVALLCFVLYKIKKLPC

[8] = ap: after preincubation (30 minutes, 37° C.), read-out: IC50 MAO B
[9] = wp: without preincubation, read-out: IC50 MAO B
[10] = ap: after preincubation (30 minutes, 37° C.)

C#CCN(C)Cc1ccccc1 [pargyline]
inhibition of MAO A (in words) [1]: inhibit MAO A
antidepressant effects (in words) [2]: lack antidepressant effects

CC(=O)N(CCC#N)N=Cc1ccc(OCc2ccccc2)cc1 [I-a2, 4-(Benzyloxy)benzaldehyde acetyl(2-cyanoethyl)hydrazone]
CC50 at 24 h [3]: 100 µM
MNTC at 24 h [3]: 10 µM
IC50 [4, 8]: 0.003 µM
IC50 [4, 9]: 0.035 µM
Percentage of residual MAO activity ([5]; after washing, 30 min): 105%
Percentage of residual MAO activity ([5]; before washing, 30 min incubation at 37° C.): 14%
CC50 at 24 h [6]: 100 µM
MNTC at 24 h [6]: 10000 nM

CCOC(=O)N(CCO)N=Cc1ccc(OCc2ccccc2)cc1 [I-b4, 4-(Benzyloxy)benzaldehyde (2-hydroxyethyl)(ethoxycarbonyl)hydrazone]
IC50 [4, 8]: 10 µM
IC50 [4, 9]: 35 µM

CNC(=O)N(CCC#N)N=Cc1ccc(OCc2ccccc2)cc1 [I-c2, 4-(benzyloxy)benzaldehyde (2-cyanoethyl)(N-methylcarbamoyl)hydrazone]
IC50 [4, 8]: 2.5 µM
IC50 [4, 9]: 1.8 µM

CC(=O)N(CCC#N)N=Cc1ccc(OCCc2ccccc2)cc1 [I-a6, 4-(2-Phenylethozy)benzaldehyde acetyl(2-cyanoethyl)hydrazone]
IC50 [4, 8]: 0.015 µM
IC50 [4, 9]: 3 µM
IC50 [7, 10]: 6.8 µM
IC50 ([7]; wp: without preincubation): 53 µM

C#CCN(C)CCCOc1ccc(Cl)cc1Cl [clorgyline]
inhibition of MAO A (in words) [1]: inhibit MAO A

CNC(=O)N(CCC#N)N=Cc1ccccc1 [I-c1, Benzaldehyde (2-cyanoethyl)(N-methylcarbamoyl)hydrazone]
IC50 [4, 8]: 120 µM
IC50 [4, 9]: 280 µM

CC(=O)N(CCC#N)N=Cc1ccc(OCc2ccc(C)cc2)cc1 [I-a2.1]
IC50 [4, 8]: 0.69 µM
IC50 [4, 9]: 43 µM

COc1ccc(COc2ccc(C=NN(CCC#N)C(C)=O)cc2)cc1 [I-a2.4]
CC50 at 24 h [3]: 65 µM
MNTC at 24 h [3]: 12.5 µM
IC50 [4, 8]: 2.15 µM
IC50 [4, 9]: 28 µM
CC50 at 24 h [6]: 40 µM
MNTC at 24 h [6]: 2300 nM

CC(=O)N(CCO)N=Cc1ccc(OCc2ccccc2)cc1 [I-a4, 4-(Benzyloxy)benzaldehyde acetyl(2-hydroxyethyl)hydrazone]
CC50 at 24 h [3]: 100 µM
MNTC at 24 h [3]: 10 µM
IC50 [4, 8]: 0.0063 µM
IC50 [4, 9]: 0.028 µM
CC50 at 24 h [6]: 100 µM
MNTC at 24 h [6]: 10000 nM
IC50 [7, 10]: 50 µM
IC50 ([7]; wp: without preincubation): 50 µM

CC(=O)N(CCC#N)N=Cc1ccc(OCc2ccc([N+](=O)[O-])cc2)cc1 [I-a2.2]
CC50 at 24 h [3]: 22 µM
MNTC at 24 h [3]: 10 µM
IC50 [4, 8]: 1.4 µM
IC50 [4, 9]: 3 µM
CC50 at 24 h [6]: 30 µM
MNTC at 24 h [6]: 650 nM

CCOC(=O)N(CCC#N)N=Cc1ccc(OCc2ccccc2)cc1 [I-b2, 4-(Benzylozy)benzaldehyde (2-cyanoethyl)(ethoxycarbonyl)hydrazone]
IC50 [4, 8]: 6.3 µM
IC50 [4, 9]: 22 µM

CC(=O)N(CCC#N)N=Cc1ccc(OCc2ccc(Cl)cc2)cc1 [I-a2.3]
CC50 at 24 h [3]: 50 µM
MNTC at 24 h [3]: 10 µM
IC50 [4, 8]: 0.245 µM
IC50 [4, 9]: 11.3 µM
MNTC at 24 h [6]: 600 nM

C#CCN(N=Cc1ccc(OCc2ccccc2)cc1)C(C)=O [I-a10, 4-(Benzyloxy)benzaldehyde acetylpropargylhydrazone]
IC50 [4, 8]: 0.36 µM
IC50 [4, 9]: 4.1 µM

CC(=O)N(CCC#N)N=Cc1ccc(OCc2ccc(Cl)cc2Cl)cc1 [I-a2.5, 4-[(2,4-Dichlorobenzyl)oxy]benzaldehyde acetyl(2-cyanoethyl)hydrazone]
IC50 [4]: 0.38 µM
IC50 MAO B ([4]; wp: without preincubation): precipitate

C#CCN(C)C(C)Cc1ccccc1 (stereo not shown) [Deprenyl]
antidepressant effects (in words) [2]: lack antidepressant effects
